Results taken from BindingDB's records for doi:10.1021/jm9606507 (Warner-Lambert, 1997).

Test: Inhibition of Endothelin A receptor mediated (ET-1) release of arachidonic acid from rabbit renal artery vascular smooth muscle cells

IC50: 0.98 nM
SMILES: COc1ccc(C(=O)/C(Cc2cc(OC)c(OC)c(OC)c2)=C(\C(=O)O)c2ccc3c(c2)OCO3)cc1C [Sodium; (Z)-2-benzo[1,3]dioxol-5-yl-4-(4-methoxy-3-methyl-phenyl)-4-oxo-3-(3,4,5-trimethoxy-benzyl)-but-2-enoate]
